# From ChEMBL document CHEMBL1155925, “Synthesis and evaluation of acylguanidine FXa inhibitors” (Bioorg Med Chem Lett, 2008)
# What was measured:
# Coagulation factor X = Coagulation factor X (Homo sapiens, UniProt P00742); experiment: Inhibition of human factor 10a
# Plasma = experiment: Anticoagulant activity in human plasma assessed as concentration required to double prothrombin-based clotting time; assay type: functional
# Chain of Coagulation factor X (P00742 41-179 limits assumed): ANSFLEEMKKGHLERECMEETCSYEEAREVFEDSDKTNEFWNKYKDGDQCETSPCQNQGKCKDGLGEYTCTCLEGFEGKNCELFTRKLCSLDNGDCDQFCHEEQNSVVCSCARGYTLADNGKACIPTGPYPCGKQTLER
# Chain of Coagulation factor X (P00742 235-488 limits assumed): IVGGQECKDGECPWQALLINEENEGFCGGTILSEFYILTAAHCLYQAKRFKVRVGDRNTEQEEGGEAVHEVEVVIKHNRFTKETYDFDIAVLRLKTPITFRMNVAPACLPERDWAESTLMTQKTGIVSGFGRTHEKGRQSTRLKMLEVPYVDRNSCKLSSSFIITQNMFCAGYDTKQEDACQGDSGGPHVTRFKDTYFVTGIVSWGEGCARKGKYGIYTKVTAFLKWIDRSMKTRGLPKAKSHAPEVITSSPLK
SMILES,IC50 (Coagulation factor X),Activity (Plasma)
COc1ccc(N/C(=N\C(=O)C2CCN(C(=O)c3ccccc3)CC2)N[C@H]2CCCCN(CC(=O)N3CCCC3)C2=O)cc1,506 nM,48 µM
Cc1cc2cc(N/C(=N\C(=O)C3CCN(C(=O)c4ccccc4)CC3)N[C@H]3CCCCN(CC(=O)N4CCCC4)C3=O)ccc2o1,10 nM,7.5 µM
Cc1cc2cc(N/C(=N\C(=O)c3sc(C)nc3C)N[C@H]3CCCCN(CC(=O)N4CCCC4)C3=O)ccc2o1,17 nM,42 µM
COc1ccc(NC(=N[C@H]2CCCCN(CC(=O)N3CCCC3)C2=O)NC(=O)c2ccc(N(C)C)cc2)cc1,403 nM,–
COc1ccc(NC(=N[C@H]2CCCCN(CC(=O)N3CCCC3)C2=O)NC(=O)c2cc(OC)cc(OC)c2)cc1,872 nM,–
Cc1cc2cc(N/C(=N\C(=O)c3ccccc3)N[C@H]3CCCCN(CC(=O)N4CCCC4)C3=O)ccc2o1,–,48 µM
COc1ccc(NC(=N[C@H]2CCCCN(CC(=O)N3CCCC3)C2=O)NC(=O)c2ccc(F)c(F)c2)cc1,272 nM,–
Cc1cccc(N/C(=N\C(=O)c2sc(C)nc2C)N[C@H]2CCCCN(CC(=O)N3CCCC3)C2=O)c1,462 nM,>50 µM
COc1ccc(N/C(=N\C(=O)c2cccc(OC)c2)N[C@H]2CCCCN(CC(=O)N3CCCC3)C2=O)cc1,193 nM,–
Cc1cccc(NC(=N[C@H]2CCCCN(CC(=O)N3CCCC3)C2=O)NC(=O)c2cccc(F)c2)c1,373 nM,–
Cc1cccc(N/C(=N\C(=O)c2ccc(F)cc2)N[C@H]2CCCCN(CC(=O)N3CCCC3)C2=O)c1,222 nM,–
Cc1cccc(NC(=N[C@H]2CCCCN(CC(=O)N3CCCC3)C2=O)NC(=O)c2ccc(N(C)C)cc2)c1,517 nM,–
COc1ccc(NC(=N[C@H]2CCCCN(CC(=O)N3CCCC3)C2=O)NC(=O)c2ccc(Cl)cc2)cc1,294 nM,–
COc1ccc(NC(=N[C@H]2CCCCN(CC(=O)N3CCCC3)C2=O)NC(=O)c2cc(Cl)cc(Cl)c2)cc1,546 nM,–
COc1ccc(NC(=N[C@H]2CCCCN(CC(=O)N3CCCC3)C2=O)NC(=O)c2ccccc2)cc1,246 nM,–
Cc1cccc(NC(=N[C@H]2CCCCN(CC(=O)N3CCCC3)C2=O)NC(=O)c2ccc(F)c(F)c2)c1,271 nM,–
COc1ccc(NC(=N[C@H]2CCCCN(CC(=O)N3CCCC3)C2=O)NC(=O)c2cccc(Cl)c2)cc1,267 nM,–
COc1ccc(C(=O)NC(=N[C@H]2CCCCN(CC(=O)N3CCCC3)C2=O)Nc2cccc(C)c2)cc1OC,400 nM,–

SMILES,IC50 (Coagulation factor X),Activity (Plasma)
Cc1cccc(NC(=N[C@H]2CCCCN(CC(=O)N3CCCC3)C2=O)NC(=O)c2ccccc2)c1,245 nM,–
Cc1cccc(N/C(=N\C(=O)c2ccno2)N[C@H]2CCCCN(CC(=O)N3CCCC3)C2=O)c1,628 nM,50 µM
Cc1cccc(N/C(=N\C(=O)c2ccc(Cl)cc2)N[C@H]2CCCCN(CC(=O)N3CCCC3)C2=O)c1,198 nM,–
COc1cc(OC)cc(C(=O)/N=C(\Nc2cccc(C)c2)N[C@H]2CCCCN(CC(=O)N3CCCC3)C2=O)c1,1160 nM,–
COc1cccc(C(=O)NC(=N[C@H]2CCCCN(CC(=O)N3CCCC3)C2=O)Nc2cccc(C)c2)c1,276 nM,–
Cc1cc2cc(N/C(=N\C(=O)c3ccno3)N[C@H]3CCCCN(CC(=O)N4CCCC4)C3=O)ccc2o1,14 nM,17.7 µM
Cc1cccc(N/C(=N\C(=O)C2CCN(C(=O)c3ccccc3)CC2)N[C@H]2CCCCN(CC(=O)N3CCCC3)C2=O)c1,1070 nM,>50 µM
COc1ccc(N/C(=N\C(=O)c2sc(C)nc2C)N[C@H]2CCCCN(CC(=O)N3CCCC3)C2=O)cc1,386 nM,>50 µM
COc1ccc(N/C(=N\C(=O)c2ccc(OC)cc2)N[C@H]2CCCCN(CC(=O)N3CCCC3)C2=O)cc1,227 nM,–
Cc1cccc(NC(=N[C@H]2CCCCN(CC(=O)N3CCCC3)C2=O)NC(=O)c2cc(Cl)cc(Cl)c2)c1,835 nM,–
COc1ccc(NC(=N[C@H]2CCCCN(CC(=O)N3CCCC3)C2=O)NC(=O)c2cc(F)cc(F)c2)cc1,208 nM,–
COc1ccc(N/C(=N\C(=O)c2ccno2)N[C@H]2CCCCN(CC(=O)N3CCCC3)C2=O)cc1,380 nM,45 µM
Cc1cccc(NC(=N[C@H]2CCCCN(CC(=O)N3CCCC3)C2=O)NC(=O)c2cccc(Cl)c2)c1,371 nM,–
COc1ccc(C(=O)NC(=N[C@H]2CCCCN(CC(=O)N3CCCC3)C2=O)Nc2cccc(C)c2)cc1,709 nM,–
COc1ccc(NC(=N[C@H]2CCCCN(CC(=O)N3CCCC3)C2=O)NC(=O)c2cccc(F)c2)cc1,256 nM,–
COc1ccc(N/C(=N\C(=O)c2ccc(F)cc2)N[C@H]2CCCCN(CC(=O)N3CCCC3)C2=O)cc1,368 nM,–
Cc1cccc(NC(=N[C@H]2CCCCN(CC(=O)N3CCCC3)C2=O)NC(=O)c2cc(F)cc(F)c2)c1,396 nM,–
COc1ccc(N/C(=N\C(=O)c2ccc(OC)c(OC)c2)N[C@H]2CCCCN(CC(=O)N3CCCC3)C2=O)cc1,494 nM,–
